Read-outs that look alike come from different tables or passages of the source.
How the values were obtained:
Assay type in all cases: cell-based
MYB mRNA [1] = assay: Splicing RT-qPCR assay (THP), Table 2A
[2] = tested on: SH-SY5Y (human neuroblastoma) cells; assay: Cell viability, Cell Titer Glo 2.0 assay; details: read-out: Viability SHSY5Y.3 GI50
Summary of the method: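 Toxicity screen in SH-SY5Y cells. Compounds were serially diluted in DMSO and then in medium, giving 0.1% DMSO final. Viability was read with CellTiter-Glo 2.0 after 72 h at 37 °C, 5% CO2, against medium-only blank wells.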

HTT mRNA [3] = assay: Splicing RT-qPCR assay (THP), Table 2A
HTT mRNA [4] = assay: Gene panel canonical junction qPCR assay, decrease in CJ mRNA, Table 3
Summary of the method: (§1)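 A673 (DMEM, 10% FBS, 15,000 cells/well) or K562 (IMDM, 10% FBS) cells treated 24 h at 37 °C with 11-point 3-fold dilutions, top 10 uM, DMSO ≤0.25%. Canonical exon-exon junction mRNA measured by RT-qPCR, normalized to GAPDH, GUSB or PPIA and DMSO (ΔΔCt); IC50 from 4-parameter logistic fit.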

MYB mRNA [5] = assay: as above
Summary of the method: as §1

[6] = Table 2A, THP, MYB alternative junction (AJ) mRNA, read-out: MYB AJ (AC50, increase in alternative junction mRNA)
[7] = Table 2A, THP, MYB canonical junction (CJ) mRNA, read-out: MYB CJ (IC50, decrease in canonical junction mRNA)
[8] = Table 2A, THP, HTT alternative junction (AJ) mRNA, read-out: HTT AJ (AC50, increase in alternative junction mRNA)
[9] = Table 2A, THP, HTT canonical junction (CJ) mRNA, read-out: HTT CJ (IC50, decrease in canonical junction mRNA)
[10] = decrease in CJ mRNA levels, canonical junction qPCR, gene panel
[11] = Table 2A (THP), AJ mRNA increase, read-out: MYB AJ (increase in alternative junction mRNA, AC50)
[12] = Table 2A (THP), CJ mRNA decrease, read-out: MYB CJ (decrease in canonical junction mRNA, IC50)
[13] = Table 2A (THP), AJ mRNA increase, read-out: HTT AJ (increase in alternative junction mRNA, AC50)
[14] = Table 2A (THP), CJ mRNA decrease, read-out: HTT CJ (decrease in canonical junction mRNA, IC50)
[15] = decrease in canonical junction (CJ) mRNA, gene panel qPCR, Table 3

Row | Structure (SMILES) | IC50 (MYB mRNA [1]; [7]) [nM] | GI50 [2] [nM] | IC50 (HTT mRNA [3]; [9]) [µM] | IC50 (HTT mRNA [4]; [10]) [µM] | IC50 (MYB mRNA [5]; [10]) [nM] | IC50 (MYB mRNA [1]; [12]) [nM] | IC50 (HTT mRNA [3]; [14]) [µM] | IC50 (HTT mRNA [4]; [15]) [µM] | IC50 (MYB mRNA [5]; [15]) [nM] | AC50 (MYB mRNA [1]; [6]) [nM] | AC50 (HTT mRNA [3]; [8]) [µM] | AC50 (MYB mRNA [1]; [11]) [nM] | AC50 (HTT mRNA [3]; [13]) [µM]
1 | CCNC1CCN(c2ccc(C(=O)Nc3cc4c(C)nc(C)cn4c3)c3nn(C)cc23)CC1 [Compound 345, N-(1,3-dimethylpyrrolo[1,2-a]pyrazin-7-yl)-4-[4-(ethylamino)-1-piperidyl]-2-methyl-indazole-7-carboxamide] | – | 1000 to 10000 | – | – | – | 1000 to 10000 | > 10 | > 10 | 1000 to 10000 | – | – | > 10000 | > 10
2 | Cc1cn2cc(NC(=O)c3c(F)cc(N4CCC(NC5CC5)CC4)c4cn(C)nc34)nc2c(CNS(C)(=O)=O)n1 [Compound 393, 4-(4-(cyclopropylamino)piperidin-1-yl)-6-fluoro-2-methyl-N-(6-methyl-8-(methylsulfonamidomethyl)imidazo[1,2-a]pyrazin-2-yl)-2H-indazole-7-carboxamide 2,2,2-trifluoroacetate] | – | 1000 to 10000 | – | – | – | 100 to 1000 | > 10 | > 10 | 100 to 1000 | – | – | 100 to 1000 | > 10
3 | Cn1cc2cc(NC(=O)c3ccc(N4CCC(NC5CC5)CC4)c4cn(C)nc34)cc(CNS(C)(=O)=O)c2n1 [Compound 735, 4-(4-(cyclopropylamino)piperidin-1-yl)-2-methyl-N-(2-methyl-7-(methylsulfonamidomethyl)-2H-indazol-5-yl)-2H-indazole-7-carboxamide 2,2,2-trifluoroacetate] | 1000 to 10000 | > 10000 | > 10 | > 10 | 1000 to 10000 | – | – | – | – | 1000 to 10000 | > 10 | – | –
4 | COc1nc2c(C(=O)Nc3ccc(=O)n(C)c3)ccc(N3C[C@H](C)N[C@@H](C)C3)c2s1 [Compound 730, 7-((3S,5S)-3,5-dimethylpiperazin-1-yl)-2-methoxy-N-(1-methyl-6-oxo-1,6-dihydropyridin-3-yl)benzo[d]thiazole-4-carboxamide 2,2,2-trifluoroacetate] | 100 to 1000 | 1000 to 10000 | > 10 | > 10 | 100 to 1000 | – | – | – | – | 100 to 1000 | > 10 | – | –
5 | Cc1cn2cc(NC(=O)c3ccc(N4CCC(NC5CC5)CC4)c4cn(C)nc34)nc2c(CNc2nccs2)n1 [Compound 860] | > 10000 | 1000 to 10000 | > 10 | > 10 | > 10000 | – | – | – | – | > 10000 | > 10 | – | –
6 | COc1cc2nn(C)cc2cc1NC(=O)c1ccc(N2CC3(CNC3)C2)c2cn(C)nc12 [Compound 506] | – | > 10000 | – | – | – | 100 to 1000 | 1 to 10 | 1 to 10 | 100 to 1000 | – | – | 100 to 1000 | 1 to 10
7 | COc1cc2nn(C)cc2cc1NC(=O)c1ccc(N2CC3(CNCCO3)C2)c2cn(C)nc12 [Compound 508] | – | 1000 to 10000 | – | – | – | > 10000 | > 10 | > 10 | > 10000 | – | – | 1000 to 10000 | > 10
8 | Cc1cn2cc(NC(=O)c3ccc(N4CC5CCC(C4)N5)c4cn(C)nc34)nc2c(CNS(C)(=O)=O)n1 [Compound 885, 4-(3,8-diazabicyclo[3.2.1]octan-3-yl)-N-[8-(methanesulfonamidomethyl)-6-methyl-imidazo[1,2-a]pyrazin-2-yl]-2-methyl-indazole-7-carboxamide] | 1000 to 10000 | 1000 to 10000 | 1 to 10 | 1 to 10 | 1000 to 10000 | – | – | – | – | 1000 to 10000 | 1 to 10 | – | –
9 | CCNC1CCN(c2ccc(C(=O)Nc3cn4cc(C)nc(C)c4c3OC)c3nn(C)cc23)CC1 [Compound 452, 4-(4-(ethylamino)-piperidin-1-yl)-N-(8-methoxy-1,3-dimethyl-pyrrolo[1,2-a]pyrazin-7-yl)-2-methyl-2H-indazole-7-carboxamide 2,2,2-trifluoroacetate] | – | 1000 to 10000 | – | – | – | > 10000 | > 10 | > 10 | > 10000 | – | – | > 10000 | > 10
10 | C[C@H]1CN(c2ccc(C(=O)Nc3cc(F)c4nn(C)cc4c3)c3sc(OCc4ccnn4C)nc23)C[C@H](C)N1 [Compound 796, 4-[(3S,5S)-3,5-dimethylpiperazin-1-yl]-N-(7-fluoro-2-methyl-indazol-5-yl)-2-[(2-methylpyrazol-3-yl)methoxy]-1,3-benzothiazole-7-carboxamide] | > 10000 | 1000 to 10000 | > 10 | > 10 | > 10000 | – | – | – | – | > 10000 | > 10 | – | –

Further lines, with some results ahead:

Row | IC50 (MYB mRNA [1]; [7]) [nM] | GI50 [2] [nM] | IC50 (HTT mRNA [3]; [9]) [µM] | IC50 (HTT mRNA [4]; [10]) [µM] | IC50 (MYB mRNA [5]; [10]) [nM] | IC50 (MYB mRNA [1]; [12]) [nM] | IC50 (HTT mRNA [3]; [14]) [µM] | IC50 (HTT mRNA [4]; [15]) [µM] | IC50 (MYB mRNA [5]; [15]) [nM] | Structure (SMILES) | AC50 (MYB mRNA [1]; [6]) [nM] | AC50 (HTT mRNA [3]; [8]) [µM] | AC50 (MYB mRNA [1]; [11]) [nM] | AC50 (HTT mRNA [3]; [13]) [µM]
11 | 100 to 1000 | 1000 to 10000 | > 10 | > 10 | 100 to 1000 | – | – | – | – | C=CCNC1CCN(c2ccc(C(=O)Nc3cc(CNS(C)(=O)=O)c4nc(C)cn4c3)c3nn(C)cc23)CC1 [Compound 836, 4-[4-(allylamino)-1-piperidyl]-N-[8-(methanesulfonamidomethyl)-2-methyl-imidazo[1,2-a]pyridin-6-yl]-2-methyl-indazole-7-carboxamide] | 100 to 1000 | > 10 | – | –
12 | – | 100 to 1000 | – | – | – | < 100 | > 10 | > 10 | < 100 | Cc1cn2cc(NC(=O)c3c(F)cc(N4CCC(NC5CC5)CC4)c4cn(C)nc34)nc2cn1 [Compound 404, 4-(4-(cyclopropylamino)-piperidin-1-yl)-6-fluoro-2-methyl-N-(6-methylimid-azo-[1,2-a]pyrazin-2-yl)-2H-indazole-7-carbox-amide 2,2,2-trifluoro-acetate] | – | – | < 100 | 1 to 10
13 | – | 100 to 1000 | – | – | – | < 100 | 1 to 10 | 1 to 10 | < 100 | Cc1cn2cc(NC(=O)c3c(F)cc(N4CCC(NC5CC5)CC4)c4cn(C)nc34)nc(Oc3ccccn3)c2n1 [Compound 408, 4-[4-(cyclopropylamino)-1-piperidy1]-6-fluoro-2-methyl-N-[2-methyl-8-(2-pyridyloxy)imidazo[1,2-a]-pyrazin-6-yl]indazole-7-carboxamide] | – | – | < 100 | 0.1 to 1
14 | – | 100 to 1000 | – | – | – | 100 to 1000 | 1 to 10 | 1 to 10 | 100 to 1000 | COc1cc2nc(C)cn2cc1NC(=O)c1cnc(N2CCC(NC3CC3)CC2)c2cn(C)nc12 [Compound 440, 4-[4-(cyclopropylamino)-1-piperidyl]-N-(7-methoxy-2-methyl-imidazo[1,2-a]-pyridin-6-yl)-2-methyl-pyrazolo[4,3-c]-pyridine-7-carboxamide] | – | – | < 100 | 1 to 10
15 | – | 100 to 1000 | – | – | – | 100 to 1000 | 1 to 10 | 1 to 10 | 100 to 1000 | CCNC1CCN(c2ccc(C(=O)Nc3cc(Oc4cccc(C)c4)c4nc(C)cn4c3)c3nn(C)cc23)CC1 [Compound 327, 4-[4-(ethylamino)-1-piperidyl]-2-methyl-N-[2-methyl-8-(3-methylphenoxy)imidazo[1,2-a]pyridin-6-yl]indazole-7-carboxamide] | – | – | < 100 | 1 to 10
16 | < 100 | 100 to 1000 | 0.1 to 1 | 0.1 to 1 | < 100 | – | – | – | – | Cc1cn2cc(NC(=O)c3ccc(N4CCC(NC5CC5)CC4)c4cc(CF)nn34)cc(F)c2n1 [Compound 623, 4-[4-(cyclopropylamino)-1-piperidyl]-2-(fluoromethyl)-N-(8-fluoro-2-methyl-imidazo[1,2-a]-pyridin-6-y1)pyrazolo[1,5-a]pyridine-7-carboxamide] | < 100 | 0.1 to 1 | – | –

Reference: US20260285853A1, “COMPOUNDS AND METHODS FOR MODULATING SPLICING” (REMIX THERAPEUTICS INC., priority 2023, published 2026)
